Data taken from patent US12018011B2, “Macrocyclic compounds and compositions, and methods of preparing and using the same” (Kura Oncology, Inc., priority 2021, dated 2024).

Biological target: T1, Recombinant human farnesyl transferase (FTase) (Homo sapiens, UniProt P49356)
T1 construct: purchased Crelux (Martinsried, Germany)
Experiment: FTase fluorescence assay (farnesylation of dansyl-GCVLS peptide)
Type: biochemical
Details: recombinant human FTase 2.5 nM, Dansyl-GCVLS 85 nM, FPP 30 nM, 30° C., 50 minutes

| IC50 | Compound |
| --- | --- |
| 10 to 100 nM | Cn1cncc1C1(O)c2ccc(Br)c(c2)COc2cccc(c2)-c2nccc3ccc1cc23 (stereo not drawn) [Compound 84, 4^4-bromo-3-(1-methyl-1H-imidazol-5-yl)-6-oxa-2(1,7)-isoquinolina-1,4(1,3)-dibenzenacyclohexaphan-3-ol] |
| 10 to 100 nM | Cn1cncc1C1(O)c2ccc(C#N)c(c2)COc2cccc(c2)-c2nccc3ccc1cc23 (stereo not drawn) [Compound 85, 3-hydroxy-3-(1-methyl-1H-imidazol-5-yl)-6-oxa-2(1,7)-isoquinolina-1,4(1,3)-dibenzenacyclohexaphane-4^4-carbonitrile] |
| > 100 nM | COc1cc2c3cc(cnc3c1)C(O)(c1cncn1C)c1ccc(Br)c(c1)COc1cccc-2c1 (stereo not drawn) [Compound 87, 4^4-bromo-2^7-methoxy-3-(1-methyl-1H-imidazol-5-yl)-6-oxa-2(5,3)-quinolina-1,4(1,3)-dibenzenacyclohexaphan-3-ol] |
| ≤ 10 nM | COc1cc2c3cc(cnc3c1)C(O)(c1cncn1C)c1ccc(C#N)c(c1)COc1cccc-2c1 (stereo not drawn) [Compound 88, 3-hydroxy-2^7-methoxy-3-(1-methyl-1H-imidazol-5-yl)-6-oxa-2(5,3)-quinolina-1,4(1,3)-dibenzenacyclohexaphane-4^4-carbonitrile] |

Further lines, the compound ahead of its results:

| Compound | IC50 |
| --- | --- |
| Cn1cncc1C1(N)c2ccc(C#N)c(c2)COc2cccc(c2)-c2cc(NC3COC3)nc3ccc1cc23 (stereo not drawn) [Compound 68, 3-amino-3-(1-methyl-1H-imidazol-5-yl)-2^2-(oxetan-3-ylamino)-6-oxa-2(4,6)-quinolina-1,4(1,3)-dibenzenacyclohexaphane-4^4-carbonitrile] | 10 to 100 nM |
| Cn1cncc1C1(N)c2ccc(Br)c(c2)COc2cccc(c2)-c2cc(Cl)nc3ccc1cc23 (stereo not drawn) [Compound 74, 4^4-bromo-2^2-chloro-3-(1-methyl-1H-imidazol-5-yl)-6-oxa-2(4,6)-quinolina-1,4(1,3)-dibenzenacyclohexaphan-3-amine] | 10 to 100 nM |
| Cn1cncc1C1(N)c2ccc(Br)c(c2)COc2cccc(c2)-c2cc(OC3COC3)nc3ccc1cc23 (stereo not drawn) [Compound 75, 4^4-bromo-3-(1-methyl-1H-imidazol-5-yl)-2^2-(oxetan-3-yloxy)-6-oxa-2(4,6)-quinolina-1,4(1,3)-dibenzenacyclohexaphan-3-amine] | > 100 nM |
| Cn1cncc1C1(N)c2ccc(Br)c(c2)COc2cccc(c2)-c2nc(N)nc3ccc1cc23 (stereo not drawn) [Compound 82, 4^4-bromo-3-(1-methyl-1H-imidazol-5-yl)-6-oxa-2(4,6)-quinazolina-1,4(1,3)-dibenzenacyclohexaphane-2^2,3-diamine] | ≤ 10 nM |
| Cn1cncc1C1(O)c2ccc(Br)c(c2)COc2cccc(c2)-c2cncc3ccc1cc23 (stereo not drawn) [Compound 83, 4^4-bromo-3-(1-methyl-1H-imidazol-5-yl)-6-oxa-2(4,6)-isoquinolina-1,4(1,3)-dibenzenacyclohexaphan-3-ol] | ≤ 10 nM |
